Earlier results, collected in patent US20120003325A1, “USE OF HELIUM-OXYGEN GAS MIXTURES FOR TREATING PULMONARY ARTERIAL HYPERTENSION” (BAYER SCHERING PHARMA AKTIENGESELLSCHAFT, priority 2008, published 2012).

Details: oil-water mixture

## [He] [helium]
  solubility relative to the solubility of oxygen or nitrogen: 30%
